Earlier results in PMC3159814 (Bioorganic & medicinal chemistry letters, 2011).

Tested on: GnRH receptor

## 1,4,7,10-tetraazacyclododecane-1,4,7,10-tetraacetic acid (DOTA)-Ahx-(D-Lys^6-GnRH1) [DOTA-Ahx-(D-Lys^6-GnRH1)]
  GnRH receptor binding affinity: 36.1 nM
